Measured values: patent publication US20140248635A1, “ALPHA-TUBULIN […]” (University of Georgia Research Foundation, Inc., priority 2010, published 2014)

Columns and labels:
zebrafish embryos = experiment: Phenotypes of live zebrafish embryos at 48 hpf after morpholino injection; type: in vivo
From the text: (§1) To disrupt the MEC-17 gene in Tetrahymena, we used homologous DNA recombination with a fragment carrying the neo4 marker that replaced the coding region. MEC-17 was overexpressed in Tetrahymena using the MTT1 cadmium-dependent promoter. In C. elegans, MEC-12-K40, MEC-12-Q40, and MEC-12-R40 transgenes were introduced into a single site on chromosome II in the EG4322 strain. Animals homozygous for a MEC-12 transgene and homozygous for the mec-12(e1607) allele were obtained by standard crosses. All touch sensation assays in C. elegans were done using blind scoring. To deplete human MEC-17 (C6Orf134) mRNA in Hela cells, we introduced MEC-17-specific siRNAs (ON-TARGETplus pool, Dharmacon) using Oligofectamine (Invitrogen). To knockdown mec17 expression in zebrafish, MOs designed to target the MEC-17 mRNA (Open Biosystems) were injected into early embryos. ATG-MEC17 MO targets the translation initiation site of mec17 mRNA. SP-MEC17 MO targets the exon3/intron3-4 splice junction, and is expected to result in an aberrant splicing isoform of exon2 to exon 4, producing a frameshift mutation and associated protein truncation. As a negative control, we injected MO with a random sequence (oligo-25N, Gene Tools) or a 5 bp mismatch to the ATG-MEC17 MO. Live embryos were scored for phenotypes at 48 hpf. To produce a recombinant MEC-17 protein, the cDNA sequence of the murine MEC-17 (BF135007, Open Biosystems) was subcloned into pGEX-3× plasmid (GE Healthcare), expressed in BL21 E. coli cells as a GST fusion and purified using GST-Bind kit (Novagen). The in vitro acetylation assays were performed in 50 mM Tris-HCl pH 8.0, 10 mM glycerol, 0.1 mM EDTA, with purified Tetrahymena MEC-17-KO axonemes or tubulin (purified using DEAE chromatography), recombinant GST-MmMEC-17 enzyme and 10 μM acetyl-CoA. The reaction was detected by western blotting using anti-acetyl-K antibodies.
ATG-MEC17 targets the translation initiation site of MEC-17 mRNA. SP-MEC17 MO targets the exon3/intron3-4 splice junction, and is expected to result in an aberrantly spliced isoform in which exon2 is joined to exon 4. The predicted transcript contains a frameshift mutation and encodes a nonsense protein. As a negative control we injected MO with a random sequence (oligo-25N, Gene Tools) or a 5 bp mismatch to the ATG-MEC17 MO (5′-CATTgAcGTCcTAAGGcAAATgCAT-3′; SEQ ID NO:9). Live embryos were scored for phenotypes at 48 hpf, or fixed processed for immunofluorescence as described (Wloga et al., 2009 Dev Cell 16:867-876). The antibodies were used in the following concentrations: 6-11 B-1 mAb (1:1000), Znp-1 anti-synaptotagmin 1 mAb (1:100). After incubation with secondary antibodies (Zymed) overnight at 4° C. (1:500) embryos were mounted in 100 mg/ml of DABCO (Sigma-Aldrich) in PBS and viewed in a Leica TCS SP confocal microscope. Live zebrafish morphants shown in videos S1-S3 were recorded using on the Zeiss Stemi SV11 Apo microscope and a SPOT FLEX camera (Diagnostic Instruments Inc.) at 12 frames per second.

GST-MmMEC-17 = experiment: In vitro tubulin acetyltransferase assay: effect of added agents on MEC-17 activity; type: biochemical, murine; conditions: purified MEC17-KO tubulin or axonemes, acetyl-CoA
From the text: as §1, with “To produce a recombinant MEC-17 protein, the cDNA sequence of the murine MEC-17 (BF135007, Open Biosystems) was subcloned into pGEX-3× plasmid (GE Healthcare), expressed in BL21 E. coli cells as a GST fusion and purified using GST-Bind kit (Novagen). The in vitro acetylation assays were performed in 50 mM Tris-HCl pH 8.0, 10 mM glycerol, 0.1 mM EDTA, with purified Tetrahymena MEC-17-KO axonemes or tubulin (purified using DEAE chromatography), recombinant GST-MmMEC-17 enzyme and 10 μM acetyl-CoA.” left out, “antibodies. […]” for “antibodies.”

HDAC6 = biological target: T1, HDAC6 (Homo sapiens, UniProt Q9UBN7); conditions: cited from earlier work
T1 sequence (Q9UBN7 1-1215): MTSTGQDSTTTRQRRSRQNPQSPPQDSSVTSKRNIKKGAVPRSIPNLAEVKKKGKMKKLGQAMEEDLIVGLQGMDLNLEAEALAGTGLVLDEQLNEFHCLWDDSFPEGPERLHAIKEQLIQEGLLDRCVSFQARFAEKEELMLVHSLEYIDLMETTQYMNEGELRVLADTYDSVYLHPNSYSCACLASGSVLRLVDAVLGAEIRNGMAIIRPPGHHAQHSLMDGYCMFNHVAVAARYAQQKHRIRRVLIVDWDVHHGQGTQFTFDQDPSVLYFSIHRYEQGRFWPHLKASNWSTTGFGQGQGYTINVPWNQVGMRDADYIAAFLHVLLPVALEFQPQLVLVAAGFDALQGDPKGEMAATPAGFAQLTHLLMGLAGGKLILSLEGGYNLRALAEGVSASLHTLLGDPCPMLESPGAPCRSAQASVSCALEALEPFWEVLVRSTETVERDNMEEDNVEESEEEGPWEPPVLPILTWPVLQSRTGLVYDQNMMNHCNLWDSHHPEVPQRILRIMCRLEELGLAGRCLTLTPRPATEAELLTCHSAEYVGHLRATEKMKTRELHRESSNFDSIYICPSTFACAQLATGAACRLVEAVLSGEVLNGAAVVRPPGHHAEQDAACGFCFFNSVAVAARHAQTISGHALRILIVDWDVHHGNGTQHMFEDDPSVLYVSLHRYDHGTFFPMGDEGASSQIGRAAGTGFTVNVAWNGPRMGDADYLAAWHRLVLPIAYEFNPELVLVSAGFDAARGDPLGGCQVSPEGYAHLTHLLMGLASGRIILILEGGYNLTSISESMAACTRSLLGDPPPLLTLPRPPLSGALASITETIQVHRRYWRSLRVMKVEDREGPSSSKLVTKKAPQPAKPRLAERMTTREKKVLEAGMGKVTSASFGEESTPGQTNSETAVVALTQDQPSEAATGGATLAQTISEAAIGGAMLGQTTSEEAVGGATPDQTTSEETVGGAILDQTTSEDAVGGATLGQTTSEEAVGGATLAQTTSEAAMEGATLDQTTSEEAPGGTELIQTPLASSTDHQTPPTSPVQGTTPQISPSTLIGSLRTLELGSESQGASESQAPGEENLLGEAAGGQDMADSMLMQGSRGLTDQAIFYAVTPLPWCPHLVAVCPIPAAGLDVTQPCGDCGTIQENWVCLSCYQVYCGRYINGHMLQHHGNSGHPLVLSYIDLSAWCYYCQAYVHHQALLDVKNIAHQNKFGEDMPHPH

mec17 mRNA = experiment: RT-PCR of mec17 mRNA in morpholino-injected embryos; type: in vivo, zebrafish; conditions: RT-PCR exon 1 to exon 5
Method: Total cDNA was made using randomly-primed mRNA isolated from either control (WT) or embryos injected with 5 bp mismatch MO (MIS), ATG-MO (ATG), or splice-site MO (SP), and amplified using either primers corresponding to the coding sequence of the β-actin gene (top panel) or primers that correspond to the sequence of mec17 between exon 1 and exon 5 (bottom panel). As controls, amplifications were performed on samples that lacked reverse transcriptase (−RT). Note that the β-actin gene primers gave a robust product of the expected size (100 bp) for all +RT samples (top).
For RT-PCR, mRNA was isolated from 70 embryos 24 hpf using TRIzol reagent (Invitrogen, Carslbad, Calif.), and total cDNA was synthesized using iScript cDNA synthesis kit (Bio-Rad Laboratories, Hercules, Calif.). The sequences of primers used to amplify the mec17 cDNA were: MEC17EX1F 5′-[…]-3′ (SEQ ID NO:10) and MEC17EX5R2 5′-[…]-3′ (SEQ ID NO:11). The forward primer binds to exon 1 and the reverse primer binds to exon 5 (the splice blocking morpholino binds to the junction between exon 3 and the intron 3-4). For the control amplification of β-actin cDNA, we used the following primers: 5′-[…]-3′ (SEQ ID NO:12) and 5′-[…]-3′ (SEQ ID NO:13).

[1] = tested on: MEC-17-KO Tetrahymena cells; experiment: Response of Tetrahymena strains to microtubule drugs (growth, axonemes); type: cell-based; conditions: MEC-17-KO vs wild type
Method: Cells were suspended at 10^5 cell/ml in SPP medium and incubated with the drug for 22 hr at 30° C. and the cell density was determined.

Compound | Edema of the heart (frequency of phenotype) (zebrafish embryos; Table 2, 1 ng MO, 48 hpf) [%] | Hydrocephaly (frequency of phenotype) (zebrafish embryos; Table 2, 1 ng MO, 48 hpf) [%] | Lethality (frequency of phenotype) (zebrafish embryos; Table 2, 1 ng MO, 48 hpf) [%] | Mobility: reduced mobility (zebrafish embryos; Table 2, 1 ng MO, 48 hpf) [% reduced mobility] | Short body axis (frequency of phenotype) (zebrafish embryos; Table 2, 1 ng MO, 48 hpf) [%] | Small head/eyes: small eyes (zebrafish embryos; Table 2, 1 ng MO, 48 hpf) [% small eyes] | Small head/eyes: small heads (zebrafish embryos; Table 2, 1 ng MO, 48 hpf) [% small heads] | Edema of the heart (frequency of phenotype) (zebrafish embryos; Table 1, 1 ng MO, 48 hpf) [%] | Hydrocephaly (frequency of phenotype) (zebrafish embryos; Table 1, 1 ng MO, 48 hpf) [%] | Lethality (frequency of phenotype) (zebrafish embryos; Table 1, 1 ng MO, 48 hpf) [%] | Paralyzed (frequency of phenotype) (zebrafish embryos; Table 1, 1 ng MO, 48 hpf) [%] | Reduced mobility (frequency of phenotype) (zebrafish embryos; Table 1, 1 ng MO, 48 hpf) [%] | Short body axis (frequency of phenotype) (zebrafish embryos; Table 1, 1 ng MO, 48 hpf) [%] | Small head/eyes (frequency of phenotype) (zebrafish embryos; Table 1, 1 ng MO, 48 hpf) [%] | effect on MEC-17 acetylation activity (GST-MmMEC-17) | also measured
ATG MIS MO: negative control MO, 5 bp mismatch to the ATG-MEC17 MO, 5′-CATTgAcGTCcTAAGGcAAATgCAT-3′ (SEQ ID NO:9) (CATTGACGTCCTAAGGCAAATGCAT; all phosphorodiamidate morpholino (PMO)) [reference compound] | 3.8 | 0 | 2.5 | 2.5 | 5.1 | 1.2 | 6.4 | – | – | – | – | – | – | – | – | gross embryo phenotype / developmental defects (zebrafish embryos; injected embryos): appeared normal
MEC-17 ATG MO: morpholino 5′-CATTCAGGTCGTAAGGGAAATCCAT-3′ (SEQ ID NO:7); targets the translation initiation site of MEC-17 mRNA (all phosphorodiamidate morpholino (PMO)) | 7.9 | 13.8 | 3.7 | 17.5 | 27.1 | 74.4 | 79.2 | 15.4 | 15 | 7 | 15.4 | 41.6 | 35.7 | 28.5 | – | Mobility: paralyzed (zebrafish embryos; Table 2, 1 ng MO, 48 hpf): 10.1% paralyzed
Nc1nc2c(ncn2[C@@H]2O[C@H](COP(=O)(O)OP(=O)(O)OP(=O)(O)O)[C@@H](O)[C@H]2O)c(=O)[nH]1 [GTP] | – | – | – | – | – | – | – | – | – | – | – | – | – | – | stimulated | –
O=C(CCCCCCC(=O)Nc1ccc([C@H]2O[C@@H](CSc3nc(-c4ccccc4)c(-c4ccccc4)o3)C[C@@H](c3ccc(CO)cc3)O2)cc1)NO [tubacin] | – | – | – | – | – | – | – | – | – | – | – | – | – | – | – | inhibition of HDAC6 (HDAC6): a specific inhibitor
MEC-17 SP MP: morpholino 5′-AGAGAAAGCTATTTTACCCGTTCTG-3′ (SEQ ID NO:8); targets the exon3/intron3-4 splice junction of mec17 (all phosphorodiamidate morpholino (PMO)) | – | – | – | – | – | – | – | 13.2 | 33 | 28 | 15 | 23.5 | 41.5 | 47.1 | – | levels of mec17 mRNA (mec17 mRNA): severe reduction
CC(=O)O[C@H]1C(=O)[C@@]2(C)[C@H]([C@H](OC(=O)c3ccccc3)[C@]3(O)C[C@H](OC(=O)[C@H](O)[C@@H](NC(=O)c4ccccc4)c4ccccc4)C(C)=C1C3(C)C)[C@]1(OC(C)=O)CO[C@@H]1C[C@@H]2O [Paclitaxel, paclitaxel, reference compound] | – | – | – | – | – | – | – | – | – | – | – | – | – | – | stimulated | growth of MEC-17-KO cells in medium with drug, compared with wild type [1]: grew faster than wild-type cells
